Consider five compounds from article PMC6219560, “An Electroencephalography Bioassay for Preclinical Testing of Analgesic Efficacy” (Scientific Reports, 2018).

Read-outs that look alike come from different tables or passages of the source.

The subject of one data set is rats with CCI. Also on record: method as in PMID 23489258. The following applies: single doses (i.p.), rats with CCI ref 38; cited from earlier work.
The next data set concerns pain patients. The settings on record: equivalent human dose High (rat 30 mg/kg i.p.); cited from earlier work.
The conditions of data set [1]: cited from earlier work; for Plasma concentration in rat: mean (% coefficient of variation) ref 29; for Plasma concentration in rat (% covariance): mean ref Lau et al.
Data set [2] concerns rat model of neuropathic pain (CCI). The data set is described as follows: Thermal hyperalgesia: paw withdrawal latency (PWL) in rats with CCI. The class given is in vivo. The text has this: The sciatic nerve was exposed unilaterally after skin incision at the mid-thigh level and blunt dissection of the biceps under deep anesthesia (isoflurane, 3%). Four chromic gut ligatures were tied loosely around the nerve 1 mm apart, and the overlying muscles and skin were closed in layers with 4–0 Ethilon sutures. A minor modification was introduced, consisting of loose ligatures, to minimize nerve damage and deafferentation. Rats with this slightly modified CCI procedure gradually develop typical signs of sensory hypersensitivity associated with neuropathic pain, such as guarding the affected hind paw and thermal hypersensitivity. […] For CCI sham surgery, the sciatic nerve was similarly exposed but not ligated.
EEG recording was performed first for ~10 min during resting states (no stimulation). The rat was then untethered from the EEG leads and placed in the behavioral apparatus for 15 min acclimation, followed by 5 min PWL testing. Thermal sensitivity of the hindpaw was assessed by measuring the latency of the withdrawal reflex in response to a radiant heat source (Paw withdrawal stimulator, Department of Anesthesiology, University of California, SD). A radiant heat source (4.7 A) was applied to the plantar surface of the hind paw. Paw withdrawal latencies (PWL) in response to 4 thermal stimulations were averaged for each paw. Stimulations to each paw were separated by at least 2 minutes intervals.
(§1) Values regarding theta power and PWL are reported as mean ± SEM and then converted to ratio relative to naive or CCI values for standardized representation of the data. One sample t-test was used for comparison between naïve and CCI, and paired t-test was used for comparison between CCI and after treatment in the same animals, respectively. Values regarding drug plasma concentration are reported as geomean (% of covariance) or range. Correlation analysis was used to compare EEG with PWL values. A P value < 0.05 was considered statistically significant and denoted by asterisk (*) in figures.

Data set [3] is described as follows: Pharmacokinetics (PK) study: drug plasma concentration in rats by LC-MS/MS. The format is in vivo, rat. The following applies: for concentration at 30 min: geomean (% coefficient of variation), n = 3. The method, then: Rats (n = 3 per group) were intraperitoneally treated either with 3 or 100 mg/kg of pregabalin, or orally either with 1 or 10 mg/kg of EMA401, or 80 mg/kg of minocycline. At 0.5, 1, and 2 hours after treatment, approximately 150 µL of blood was collected from the jugular vein using a heparinized syringe with a needle. Blood samples were then centrifuged at 1700 g at 4 °C for 10 minutes. Plasma samples were then separated and stored at −20 °C until analysis. Five or 10 μL of plasma samples were diluted with 300 μL of deproteinization solution containing internal standards (5 nM buspirone, 20 nM tolbutamide, 10 nM reserpine in acetonitorile/methanol = 9: 1) and shaken for 5 minutes at room temperature, and centrifuged at 1000 g for 15 minutes. Then, the supernatant was analyzed by LC-MS/MS (Xevo TQ-S Tandem Quadrupole Mass Spectrometry, Waters) for quantification of pregabalin. Data analysis were performed with MassLynx Mass Spectometry Software and TargetLynx Application manager (Waters).

Data set [4] relates to rat model of neuropathic pain (CCI). The data set is described as follows: EEG theta power over primary somatosensory cortex in awake rats with CCI. The format is in vivo. The settings on record: for Longitudinal effects on theta power and PWL: single dose 10 mg/kg, n=4. How it is done:
These procedures were performed under anesthesia (isoflurane, 2–3.5%). The head was fixed in a stereotaxic apparatus, and skull was exposed after a small skin incision. A stainless steel screw electrode (0–80 ga 1/8 inch, impedance = 0.6 Ω; component Supply Company, Fort Meade, FL) was placed over intact skull (i.e. epicranially) corresponding to primary somatosensory cortex or S1 contralateral to nerve injury (Bregma −2, 2 mm lateral). Minimal craniotomies were used to place 3 stabilization screws (corresponding to Bregma +1.4, 2 mm bilaterally and Bregma −4.8 mm, midline). The EEG screw was threaded with a silver wire and attached to a female miniature pin connector (A&M Systems, Sequim, WA). All screws were anchored to the skull chronically using dental acrylic (Fig. 1B). Signal reference was provided by a silver wire permanently threaded to the skin at the back of the neck.
The sciatic nerve was exposed unilaterally after skin incision at the mid-thigh level and blunt dissection of the biceps under deep anesthesia (isoflurane, 3%). Four chromic gut ligatures were tied loosely around the nerve 1 mm apart, and the overlying muscles and skin were closed in layers with 4–0 Ethilon sutures. A minor modification was introduced, consisting of loose ligatures, to minimize nerve damage and deafferentation. […] For CCI sham surgery, the sciatic nerve was similarly exposed but not ligated.
Pin connectors from EEG electrode was tethered to preamplifier headstage leading to a multichannel amplifier (iso-DAM8A; WPI Inc, Sarasota, FL). EEG waveforms were amplified (DAM80; World Precision Instruments, Sarasota, FL). […] Rats were allowed to move freely during EEG recording in Plexiglas chambers. After 15 minutes of acclimation, EEG recording was performed. Each EEG recording session was 3 to 5 minutes per animal. […] Only data during awake resting periods (defined as alertness but idle with no locomotor behavior) were further analyzed. Potentials generated due to vigorous myogenic activity (such as scratching) were excluded from analysis. These artifacts can be easily identified on the basis of monitoring the animal’s behavior, voltage amplitude, and spectral frequency typically >30 Hz, and they were further corroborated using an automated artifact detection algorithm recently developed in our laboratory (Supplemental Fig. 3)[59].
Fast Fourier transform was used to convert EEG waveform from the time domain to the frequency domain. Power values were generated in 27 frequency bins between 3 and 30 Hz. Awake resting periods were selected and Fast Fourier transformed, then average PSD was calculated. Mean PSD theta was computed between 4 and 8 Hz (Fig. 1C). Each ‘period’ was a continuous interval between 7 and 20 seconds, and 3–5 periods were averaged to obtain one value for mean theta per condition.
as §1

For data set [5] the following is noted: cited from earlier work.
[6] abbreviates: 10 mg/kg p.o., single administration, d14 after CCI, 0.5 hr, n = 6.
The mark [7] stands for this setting: 80 mg/kg p.o., single administration at d14 after CCI, n = 5.

In the case of `Cc1cc(Cn2cnc3c2CC(C(=O)O)N(C(=O)C(c2ccccc2)c2ccccc2)C3)ccc1N(C)C` (stereo not shown) [EMA200], the Anti-allodynic effects entry in the data set on rats with CCI is listed as “dose-dependent anti-allodynic effects”.

With `CC(C)C[C@H](CN)CC(=O)O` [Pregabalin, pregabalin], the “Clinical efficacy (VAS)” value with pain patients was “Side effects”. The “Plasma concentration in rat” value is given as 11.3 (4.9) μg/mL in data set [1] (10 mg/kg i.p., 30 min) and 33.0 (5.4) μg/mL in data set [1] (30 mg/kg i.p.). Further, the “Plasma concentration in rat (% covariance)” value is given as 11.3 (4.9)*b mg/mL in data set [1] (10 mg/kg, observation time 30 min) and 33.0 (5.4)*b mg/mL in data set [1] (30 mg/kg). Also, the “PWL relative to CCI” value in data set [2] (3 mg/kg i.p., single dose, d14 after CCI, 0.5 h, mean ± SEM ratio) is on record as 1.42 ± 0.10; in data set [2] (10 mg/kg i.p., single dose, d14 after CCI, 0.5 h, mean ± SEM ratio) it was 1.54 ± 0.08; in data set [2] (30 mg/kg i.p., single dose, d14 after CCI, 0.5 h, mean ± SEM ratio), 1.47 ± 0.14. Besides, in data set [3] (doses of 3 and 100 mg/kg i.p., compared with previous report (10 and 30 mg/kg)), the “Linearity of plasma concentration at 30 min” value was “good linearity”. Further, the concentration at 30 min was 3.29 µg/mL in data set [3] (rat, in vivo, 3 mg/kg i.p.) and 99.3 µg/mL in data set [3] (rat, in vivo, 100 mg/kg i.p.). Moreover, the “Theta power relative to CCI” value in data set [4] (3 mg/kg i.p., single dose, d14 after CCI, 0.5 h, mean ± SEM ratio, n = 7) came to 0.91 ± 0.11; in data set [4] (10 mg/kg i.p., single dose, d14 after CCI, 0.5 h, mean ± SEM ratio, n = 7) it was 0.83 ± 0.12; in data set [4] (30 mg/kg i.p., single dose, d14 after CCI, 0.5 h, mean ± SEM ratio, n = 7), 1.24 ± 0.29. For the same compound, in data set [4] (30 mg/kg (i.p.), pain phase Late), the “EEG efficacy (θ power)” value was “Side effects”. In addition, the Cmax in humans is listed as 3.18 (21) μg/mL in data set [5] (150 mg/day ref 31), 6.39 (20) μg/mL in data set [5] (300 mg/day ref 31) and 11.4 (17) μg/mL in data set [5] (600 mg/day ref 31). The “Corresponding plasma concentration in human: Cmax” value in data set [5] (150 mg/day ref Chew et al.) was “Sub-therapeutic dose Similar to Cmax of 150 mg/day: 3.18 (21) mg/mL [Chew et al.]”. The “Corresponding plasma concentration in human: steady state level” value in data set [5] (600 mg/day, range ref Dworkin et al.) was “Supra-therapeutic dose Slightly higher than steady state level of 600 mg/day: 0.244–18.6 mg/mL*a [Dworkin et al.]”. Moreover, the “Steady state level in humans” value in data set [5] (600 mg/day, represented as range ref 33) was 0.244 to 18.6 µg/mL.

As to `COc1ccc2c(c1OCc1ccccc1)C[C@@H](C(=O)O)N(C(=O)C(c1ccccc1)c1ccccc1)C2` [EMA400], the Anti-allodynic effects entry in the data set with rats with CCI is “dose-dependent anti-allodynic effects”.

As for `COc1ccc2c(c1OCc1ccccc1)C[C@@H](C(=O)O)N(C(=O)C(c1ccccc1)c1ccccc1)C2` [EMA401], the “PWL relative to CCI” value in data set [2] (10 mg/kg p.o. daily starting d7 after CCI, day 7) was found to be 1.60 ± 0.19; in data set [2] (10 mg/kg p.o. daily starting d7 after CCI, day 11), 2.13 ± 0.28; in data set [2] (10 mg/kg p.o. daily starting d7 after CCI, day 14), 2.27 ± 0.30; in data set [2] (setting [6]), 1.26 ± 0.11. The Distribution entry in data set [3] (rat, in vivo) was “peripherally restricted”. For the same compound, the “Exposure after daily administration” value in data set [3] (rat, in vivo, po) is “not cumulative”. Also, the “Theta power relative to CCI” value in data set [4] (10 mg/kg p.o. daily starting d7 after CCI, day 7, n = 6) is 0.76 ± 0.07; in data set [4] (10 mg/kg p.o. daily starting d7 after CCI, day 11, n = 6) it was 0.77 ± 0.08; in data set [4] (10 mg/kg p.o. daily starting d7 after CCI, day 14, n = 6), 0.87 ± 0.12; in data set [4] (setting [6]) it was 0.71 ± 0.13. The “Longitudinal effects on theta power and PWL” value in data set [4] (CCI d7, 30 min after administration) is given as “analgesic effects”; in data set [4] (CCI d7, 2 hours after administration), “tendency for reversal”. The “Corresponding plasma concentration in human: Cmax” value in data set [5] (200 mg/day, mean (% covariance) ref Rice et al.) was “Therapeutic dose Similar to Cmax of 200 mg/day: 1.01 (65) mg/mL*b [Rice et al.]”. In addition, in data set [5] (human ref 18), the “Plasma concentration, clinical data” value is on record as 1.01 (65) μg/mL.

With `CN(C)c1ccc(O)c2c1C[C@H]1C[C@H]3[C@H](N(C)C)C(O)=C(C(N)=O)C(=O)[C@@]3(O)C(O)=C1C2=O` [Minocycline, minocycline], the “PWL relative to CCI” value is 0.91 ± 0.05 in data set [2] (80 mg/kg p.o. daily treatment starting d7 CCI, day 7); 1.00 ± 0.08 in data set [2] (80 mg/kg p.o. daily treatment starting d7 CCI, day 10); 0.94 ± 0.04 in data set [2] (80 mg/kg p.o. daily treatment starting d7 CCI, day 14); 1.08 ± 0.10 in data set [2] (setting [7]). The “Theta power relative to CCI” value in data set [4] (80 mg/kg p.o. daily starting d7 CCI, day 11, n = 7) is given as 0.95 ± 0.11; in data set [4] (80 mg/kg p.o. daily starting d7 CCI, day 14, n = 5) it was 1.37 ± 0.45; in data set [4] (80 mg/kg p.o., d7 after CCI (first of daily doses), n = 7) it was 0.71 ± 0.06; in data set [4] (setting [7]), 0.96 ± 0.13. Moreover, the “Corresponding plasma concentration in human: clinical dose” value in data set [5] (200 mg/day, range ref Sumitani et al.) was “Therapeutic dose (inconclusive) Higher than clinical (200 mg/day) dose: 3.19–4.59 mg/mL*a [Sumitani et al.]”.
